Results taken from patent EP0490581B1, “Cosmetic composition” (UNILEVER PLC, priority 1990, dated 1992).

System: isolated human hair follicles
Test: in vitro hair follicle growth test (elongation of isolated hair follicles in culture medium)
Format: cell-based
Experimental: The effect of compounds on hair growth was assessed using an in vitro test which measures the elongation of isolated human hair follicles in a culture medium.
This test includes the important step of isolating hair follicles having an undamaged hair bulb from skin, preferably from human skin, by microdissection.
The critical step of separating the hair follicle with intact undamaged hair bulb from the subcutaneous fatty tissue in which it is situated accordingly involves severing the hair shaft of the follicle at a point below the epidermis of skin surface, so as to leave the hair bulb intact and undamaged while still bearing a portion of the hair shaft.
Preferably, the hair shaft of the follicle is severed at the dermal-subcutaneous fat interface.
Any suitable cutting instrument can be employed to sever the hair shaft in this manner, but a keratotome or a scalpel are preferred.
The hair bulb with a hair shaft stump attached is then isolated from the skin by mechanically separating the hair from loosely adhering subcutaneous fat which normally surrounds the hair bulb. This is achieved after the dermis or upper layer of the skin has been separated and removed, to avoid damaging the hair bulb as it is pulled away.
The hair bulb together with hair shaft stump attached, is then transferred in an otherwise undamaged and fully functioning, viable state to a nutrient medium.
The hair follicles isolated by the technique described herein are transferred to a suitable culture medium for subsequent testing of substances that can then influence their future development.
The procedure now to be described represents a preferred method of culture and testing of hair growth.
In accordance with the preferred method of culture, isolated hair follicles are maintained in 500µl of Williams E medium, either with or without a test hair growth substance, at 37°C in an atmosphere of 5% CO₂ + 95% air in individual wells of a 24 multiwell dish (Corning), which permits detailed measurements to be made of the length of individual hair follicles.
Williams E medium is available from FLOW Laboratory under Catalogue No. 12-502. The formula of Williams E medium is described by Williams GM, et al., in Experimental Cell Research 69 (1971) on page 106.
Hair shaft length measurements can be made on these follicles, using a Nikon Diaphot inverted binocular or similar microscope with eye piece measuring graticules, […], during which time the follicles will signficiantly increase in length in response to a hair growth stimulant.
The response of an isolated hair follicle to a test substance, can accordingly be assessed by mesuring the increase in length, if any, in the presence of a test substance against a control. […]

CC(O)CC(=O)O (stereo not shown) [Na 3-hydroxybutyrate]
activity at 1000 µM (144 h, 1 mM in Williams E medium supplemented with glucose (50mM), relative to a control value of 1.0, mean of 5 follicles from each of 5 human subjects (25 follicles), read-out: Hair follicle growth after 6 days): 280%

NC(=O)CC[C@H](N)C(=O)O [Glutamine, glutamine]
activity at 2000 µM (144 h, 2mM in Williams E medium supplemented with glucose (50mM), relative to a control value of 1.0, mean of 5 follicles from each of 5 human subjects (25 follicles), read-out: Hair follicle growth after 6 days): 400%
hair growth, as compared with the control (summary in words of the table's results, Williams E medium supplemented with glucose (50mM)): most effective

CCCCCCCCCCCCCCCC(=O)O [Na palmitate]
activity at 500 µM (144 h, 0.5mM in Williams E medium supplemented with glucose (50mM), relative to a control value of 1.0, mean of 5 follicles from each of 5 human subjects (25 follicles), read-out: Hair follicle growth after 6 days): 180%
